Where “and” joins values, the source holds several entries; their conditions need not be identical. Identical values can stand only once. Inconclusive results and toxic doses are left out. How the source made its calls: active means survival T/C of 150% or more; inactive means T/C below 125% in these data.
System: BDF1 mice, B16 melanoma ip, median survival T/C
Assay: NCI In Vivo Anticancer Drug Screen. Data for tumor model B16 Melanoma (intraperitoneal) in B6D2F1 (BDF1) mice
Details: endpoint: median survival time, higher = longer survival
In short: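 Values are ratios of treated (T) to vehicle-control (C) measurements of survival or tumor size in tumor-bearing mice.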

[1] = dose: 1.0 mg/kg/injection, schedule: Q01DX009 (ip), vehicle: saline
[2] = dose: 2.0 mg/kg/injection, schedule: Q01DX009 (ip), vehicle: saline
[3] = dose: 4.0 mg/kg/injection, schedule: Q01DX009 (ip), vehicle: saline
[4] = dose: 8.0 mg/kg/injection, schedule: Q01DX009 (ip), vehicle: saline
[5] = dose: 25.0 mg/kg/injection, schedule: Q04DX003 (ip), vehicle: saline
[6] = dose: 100.0 mg/kg/injection, schedule: Q01DX009 (ip), vehicle: Klucel (hydroxypropylcellulose) (HPC)
[7] = dose: 200.0 mg/kg/injection, schedule: Q01DX009 (ip), vehicle: Klucel (hydroxypropylcellulose) (HPC)
[8] = dose: 50.0 mg/kg/injection, schedule: Q01DX009 (ip), vehicle: Klucel (hydroxypropylcellulose) (HPC)
[9] = dose: 400.0 mg/kg/injection, schedule: Q01DX009 (ip), vehicle: Klucel (hydroxypropylcellulose) (HPC)
[10] = dose: 100.0 mg/kg/injection, schedule: Q01DX009 (ip), vehicle: saline with Tween-80
[11] = dose: 200.0 mg/kg/injection, schedule: Q01DX009 (ip), vehicle: saline with Tween-80
[12] = dose: 25.0 mg/kg/injection, schedule: Q01DX009 (ip), vehicle: saline with Tween-80
[13] = dose: 50.0 mg/kg/injection, schedule: Q01DX009 (ip), vehicle: saline with Tween-80
[14] = dose: 400.0 mg/kg/injection, schedule: Q01DX009 (ip), vehicle: saline with Tween-80
[15] = dose: 25.0 mg/kg/injection, schedule: Q01DX009 (ip), vehicle: Klucel (hydroxypropylcellulose) (HPC)

Measured: T/C

O=C(Nc1ccccc1Cl)OCC(Cl)(Cl)Cl
inactive: dose: 75.0 mg/kg/injection, schedule: Q04DX003 (ip), vehicle: Klucel (hydroxypropylcellulose) (HPC) 96 % of control | dose: 150.0 mg/kg/injection, schedule: Q04DX003 (ip), vehicle: Klucel (hydroxypropylcellulose) (HPC) 91 % of control | dose: 300.0 mg/kg/injection, schedule: Q04DX003 (ip), vehicle: Klucel (hydroxypropylcellulose) (HPC) 102 % of control

CCCCCCCCCCCCCCCC#N
inactive: dose: 25.0 mg/kg/injection, schedule: Q04DX003 (ip), vehicle: Klucel (hydroxypropylcellulose) (HPC) 99 % of control | dose: 50.0 mg/kg/injection, schedule: Q04DX003 (ip), vehicle: Klucel (hydroxypropylcellulose) (HPC) 96 % of control | dose: 100.0 mg/kg/injection, schedule: Q04DX003 (ip), vehicle: Klucel (hydroxypropylcellulose) (HPC) 92 % of control

CC(=O)C1=C(O)C2C3c4c[nH]c5cccc(c45)CC3C(C)(C)N2C1=O (stereo not given)
inactive: dose: 0.13 mg/kg/injection, schedule: Q01DX009 (ip), vehicle: saline 102 % of control | dose: 0.25 mg/kg/injection, schedule: Q01DX009 (ip), vehicle: saline 106 % of control | dose: 0.5 mg/kg/injection, schedule: Q01DX009 (ip), vehicle: saline 106 % of control | [1] 106 % of control | [2] 102 % of control | [3] 107 % of control | [4] 111 % of control

CN(C)N=C1CCCC1
inactive: dose: 16.5 mg/kg/injection, schedule: Q04DX003 (ip), vehicle: saline 107 % of control | [5] 115 % of control | dose: 37.5 mg/kg/injection, schedule: Q04DX003 (ip), vehicle: saline 112 % of control

NNC(=O)c1nc(N)n[nH]1
inactive: dose: 100.0 mg/kg/injection, schedule: Q04DX003 (ip), vehicle: saline 103 % of control | dose: 200.0 mg/kg/injection, schedule: Q04DX003 (ip), vehicle: saline 104 % of control | dose: 400.0 mg/kg/injection, schedule: Q04DX003 (ip), vehicle: saline 103 % of control

O=[N+]([O-])c1ccc2nc(-c3ccccc3)c(-c3ccccc3)nc2c1
inactive: [6] 102 % of control | [7] 88 % of control

CCOC(=O)C1CC(c2ccccc2)=NN1c1ccccc1 (stereo not given)
inactive: [8] 97 % of control | [6] 104 % of control | [7] 100 % of control | [9] 97 % of control

O=[N+]([O-])O.O=[N+]([O-])O.[O]=[Zr]
inactive: dose: 12.5 mg/kg/injection, schedule: Q04DX003 (ip), vehicle: saline 97 % of control | [5] 90 % of control | dose: 50.0 mg/kg/injection, schedule: Q04DX003 (ip), vehicle: saline 95 % of control

CC(C)=Cc1ccccc1
inactive: [10] 95 % of control | dose: 100.0 mg/kg/injection, schedule: Q04DX003 (ip), vehicle: saline with Tween-80 95 % of control | [11] 86 % of control | dose: 200.0 mg/kg/injection, schedule: Q04DX003 (ip), vehicle: saline with Tween-80 93 % of control

Cc1cc(N)c2cc(NC(=O)CCCCCC(=O)Nc3ccc4nc(C)cc(N)c4c3)ccc2n1
inactive: dose: 12.5 mg/kg/injection, schedule: Q01DX009 (ip), vehicle: saline with Tween-80 90 % of control | [12] 98 % of control | [13] 110 % of control

CCOC(=O)C1(C(=O)OCC)COC(=O)C1
inactive: dose: 16.0 mg/kg/injection, schedule: Q01DX009 (ip), vehicle: saline with Tween-80 101 % of control | dose: 32.0 mg/kg/injection, schedule: Q01DX009 (ip), vehicle: saline with Tween-80 101 % of control | dose: 64.0 mg/kg/injection, schedule: Q01DX009 (ip), vehicle: saline with Tween-80 101 % of control | dose: 128.0 mg/kg/injection, schedule: Q01DX009 (ip), vehicle: saline with Tween-80 104 % of control | dose: 256.0 mg/kg/injection, schedule: Q01DX009 (ip), vehicle: saline with Tween-80 97 % of control

C[N+](C)(C)CCOC(=O)c1ccccc1
inactive: [10] 91 % of control | [11] 93 % of control | [14] 91 % of control

O=C(O)[C@@H]1[C@H]2C[C@H]3c4[nH]c5ccccc5c4CCN3C[C@@H]2CC[C@@H]1O
inactive: [15] 89 % of control | [8] 88 % of control | [6] 97 % of control | [7] 92 % of control

Nc1ccc2cc(S(=O)(=O)O)cc(O)c2c1N=Nc1ccc(F)cc1
inactive: dose: 100.0 mg/kg/injection, schedule: Q01DX009 (ip), vehicle: saline 87 % of control

O=[N+]([O-])c1ccc(Oc2cc(Cl)c(Cl)cc2Cl)c([N+](=O)[O-])c1
inactive: [15] 107 % of control | [8] 106 % of control | [6] 99 % of control

COc1ccccc1C(=O)c1ccccc1Cc1cccc2ccccc12
inactive: [13] 98 % of control | [10] 97 % of control | [11] 92 % of control | [14] 93 % of control

CC1CN1P1(N2CC2C)=NP(N2CC2C)(N2CC2C)=NP(N2CC2C)(N2CC2C)=N1 (stereo not given)
inactive: dose: 0.78 mg/kg/injection, schedule: Q01DX009 (ip), vehicle: saline 111 % of control | [1] 89 % of control and 99 % of control | dose: 1.0 mg/kg/injection, schedule: Q02DX009 (ip), vehicle: saline 91 % of control and 100 % of control | dose: 1.56 mg/kg/injection, schedule: Q01DX009 (ip), vehicle: saline 104 % of control | [2] 96 % of control and 103 % of control | dose: 2.0 mg/kg/injection, schedule: Q02DX009 (ip), vehicle: saline 100 % of control and 105 % of control and 107 % of control | dose: 3.12 mg/kg/injection, schedule: Q01DX009 (ip), vehicle: saline 105 % of control | [3] 110 % of control and 116 % of control | dose: 4.0 mg/kg/injection, schedule: Q02DX009 (ip), vehicle: saline 99 % of control and 103 % of control and 110 % of control | dose: 6.25 mg/kg/injection, schedule: Q01DX009 (ip), vehicle: saline 97 % of control and 117 % of control | [4] 107 % of control | dose: 8.0 mg/kg/injection, schedule: Q02DX009 (ip), vehicle: saline 108 % of control and 109 % of control and 112 % of control | dose: 12.5 mg/kg/injection, schedule: Q01DX009 (ip), vehicle: saline 116 % of control | dose: 16.0 mg/kg/injection, schedule: Q01DX009 (ip), vehicle: saline 117 % of control | dose: 16.0 mg/kg/injection, schedule: Q02DX009 (ip), vehicle: saline 101 % of control and 112 % of control and 116 % of control | dose: 25.0 mg/kg/injection, schedule: Q01DX009 (ip), vehicle: saline 114 % of control and 118 % of control | dose: 32.0 mg/kg/injection, schedule: Q01DX009 (ip), vehicle: saline 110 % of control | dose: 32.0 mg/kg/injection, schedule: Q02DX009 (ip), vehicle: saline 109 % of control | dose: 64.0 mg/kg/injection, schedule: Q01DX009 (ip), vehicle: saline 105 % of control | dose: 64.0 mg/kg/injection, schedule: Q02DX009 (ip), vehicle: saline 115 % of control

C/C(=C\C(=O)Nc1ncn[nH]1)Nc1ncn[nH]1
inactive: [8] 106 % of control | [6] 102 % of control | [7] 90 % of control | [9] 101 % of control

O=C(O)/C(Cl)=C(/Cl)C(Cl)=C(Cl)Cl
inactive: [12] 95 % of control
